Measurements reported in patent US5470830A, “Motilin-like polypeptides that inhibit gastrointestinal motor activity” (Ohmeda Pharmaceutical Products Division Inc., priority 1993, dated 1995).
Counter-ions that a name gives are not always drawn. Where a SMILES comes first, the peptide text is derived from it. [ ]: non-standard residue; d: D form. 2Nal = N[C@@H](Cc1ccc2ccccc2c1)C(=O)O; NMeF = CN[C@@H](Cc1ccccc1)C(=O)O; Cha = N[C@@H](CC1CCCCC1)C(=O)O

Key:
[1] = biological target: T1, motilin receptor (rabbit antral smooth muscle membranes) (Oryctolagus cuniculus, UniProt G1T803); test: Motilin receptor binding affinity: displacement of [125I-Tyr7,Nle13]motilin(porcine); settings: negative logarithm of concentration displacing 50% of [125I-Tyr7,Nle13]motilin(porcine) from rabbit antral smooth muscle membranes; read-out: pIC50 (converted)
T1 construct: from tissue; host or cells: rabbit antral smooth muscle membranes
Description: The motilin receptor binding affinity of the peptides of this invention was determined by using the general procedure of Bormans, Peelers and Vantrappen, Regul. Pept., 15, 143-153 (1986). The ability of the peptides to displace [^125 I-Tyr^7,Nle^13 ]motilin(porcine) bound to rabbit antral smooth muscle membranes, was determined by testing twice, each time in duplicate, at concentrations ranging from 10^-11 to 10^-4 M. The concentration displacing 50% of the label (IC50) was determined by fitting the data to the equation describing displacement, assuming a single class of motilin receptors to which labeled and non-labeled motilin bind with equal affinity and non-cooperatively. Fitting was performed using the iterative least-squares procedure of the SAS-software package (SAS Institute, Inc., Cary, N.C., U.S.A.). […] The concentration displacing 50% of the label is expressed using its negative logarithm (pIC50).

[2] = biological target: segments of rabbit duodenum (Oryctolagus cuniculus, UniProt G1T803); test: Rabbit duodenal smooth muscle strip tissue bath assay (contractile response); assay type: cell-based; settings: contractility; negative logarithm of dose giving 50% of maximal response to motilin; compounds tested 10^-11 to 10^-4 M
Description: The experimental protocol consisted of an equilibration period of 1 hour: a challenge with 10^-4 M acetylcholine followed by a wash-out period; a cumulative dose-response curve of a compound with, at the end, the addition of 10^-7 M motilin; and finally 10^-4 M acetylcholine. If the final response to 10^-4 M acetylcholine differed by more than 5% from the initial response, the results were discarded.

motilin receptor = biological target: T2, motilin receptor (Oryctolagus cuniculus, UniProt G1T803); test: Motilin receptor antagonism: contractile response of rabbit duodenum to motilin in presence of compound; assay type: cell-based
T2 construct: segments of rabbit duodenum; from tissue; host or cells: segments of rabbit duodenum
Description: To determine motilin receptor antagonism, the contractile response of segments of rabbit duodenum to motilin was determined isotonically in the tissue bath in the presence of a fixed concentration of the compound of interest. The experimental protocol consisted of an equilibration period of 1 hour; a challenge with 10^-4 M acetylcholine followed by a wash-out period; a cumulative motilin dose-response curve in the presence of the motilin receptor antagonist; and finally a challenge with 10^-4 M acetylcholine. If the final response to 10^-4 M acetylcholine differed by more than 5% from the initial response, the results were discarded. The point corresponding to 50% of the maximal response to motilin (Emax) was determined by fitting the equation
through the data points. The dose of motilin giving 50% of the response is expressed using its negative logarithm (pEC50). Compounds of interest were tested at concentrations of 10^-8 to 10^-5 M.

T1 sequence (G1T803 1-400): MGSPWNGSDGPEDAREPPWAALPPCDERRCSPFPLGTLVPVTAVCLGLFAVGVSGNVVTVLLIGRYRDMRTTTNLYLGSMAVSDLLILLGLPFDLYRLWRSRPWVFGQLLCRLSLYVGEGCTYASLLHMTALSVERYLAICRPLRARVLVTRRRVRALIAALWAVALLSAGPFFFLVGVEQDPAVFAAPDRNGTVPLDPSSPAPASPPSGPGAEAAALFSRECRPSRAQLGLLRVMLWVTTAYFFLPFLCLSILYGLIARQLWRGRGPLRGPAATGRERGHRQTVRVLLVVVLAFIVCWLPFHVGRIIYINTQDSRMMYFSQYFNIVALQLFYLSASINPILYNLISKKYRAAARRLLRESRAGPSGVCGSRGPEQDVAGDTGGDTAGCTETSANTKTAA
Chain of segments of rabbit duodenum (G1T803 1-400): as above
T2 sequence (G1T803 1-400): as above

Molecule: CC[C@H](C)[C@H](NC(=O)[C@H](Cc1ccc2ccccc2c1)NC(=O)[C@@H](NC(=O)[C@@H](N)Cc1ccccc1)C(C)C)C(=O)N[C@@H](Cc1ccccc1)C(=O)N[C@H](C(=O)N[C@@H](Cc1ccc(O)cc1)C(=O)NCC(=O)N[C@@H](CCC(=O)O)C(=O)N[C@@H](CC(C)C)C(=O)N[C@@H](CCC(N)=O)C(=O)N[C@@H](CCCNC(=N)N)C(=O)N[C@@H](CC(C)C)C(=O)N[C@@H](CCC(N)=O)C(=O)O)[C@@H](C)O [[2-Nal^3, Leu^13]pMOT(1-14), H-Phe-Val-2-Nal-Ile-Phe-Thr-Tyr-Gly-Glu-Leu-Gln-Arg-Leu-Gln-OH] (H-FV[2Nal]IFTYGELQRLQ-OH)
- IC50 [1]: 0.0275 µM
- pEC50 [2]: < 4.5

Molecule: CC[C@H](C)[C@H](NC(=O)[C@H](CC1CCCCC1)NC(=O)[C@@H](NC(=O)[C@@H](N)Cc1ccccc1)C(C)C)C(=O)N[C@@H](Cc1ccccc1)C(=O)N[C@H](C(=O)N[C@@H](Cc1ccc(O)cc1)C(=O)NCC(=O)N[C@@H](CCC(=O)O)C(=O)N[C@@H](CC(C)C)C(=O)N[C@@H](CCC(N)=O)C(=O)N[C@@H](CCCNC(=N)N)C(=O)N[C@@H](CC(C)C)C(=O)N[C@@H](CCC(N)=O)C(=O)O)[C@@H](C)O [[Cha^3, Leu^13]pMOT(1-14), H-Phe-Val-Cha-Ile-Phe-Thr-Tyr-Gly-Glu-Leu-Gln-Arg-Leu-Gln-OH] (H-FV[Cha]IFTYGELQRLQ-OH)
- IC50 [1]: 0.0209 µM
- pEC50 [2]: < 4.5

Molecule: CC[C@H](C)[C@H](NC(=O)[C@H](Cc1ccccc1)NC(=O)[C@@H](NC(=O)[C@H](Cc1ccccc1)NC)C(C)C)C(=O)N[C@@H](Cc1ccccc1)C(=O)N[C@H](C(=O)N[C@@H](Cc1ccc(O)cc1)C(=O)NCC(=O)N[C@@H](CCC(=O)O)C(=O)N[C@@H](CC(C)C)C(=O)N[C@@H](CCC(N)=O)C(=O)N[C@@H](CCCNC(=N)N)C(=O)N[C@@H](CC(C)C)C(=O)N[C@@H](CCC(N)=O)C(=O)O)[C@@H](C)O [[N--MePhe^1, Phe^3, Leu^3]pMOT(1-14), [1-N-Methylphenylalanine, 3-phenylalanine, 13-leucine] motilin-(1-14)-peptide (Porcine), Bis-trifluoroacetate Salt] (H-[NMeF]VFIFTYGELQRLQ-OH)
- IC50 [1]: 0.0107 µM
- pEC50 [2]: < 4.5

Molecule: H-FVFIFTFGELQRLQ-OH [[Phe^3, Phe^7, Leu^13]pMOT(1-14), H-Phe-Val-Phe-Ile-Phe-Thr-Phe-Gly-Glu-Leu-Gln-Arg-Leu-Gln-OH]
- IC50 [1]: 0.0309 µM
- pEC50 [2]: < 4.5

Molecule: H-FVFIFTYGELQRLQ-OH [[Phe^3, Leu^13]pMOT(1-14), H-Phe-Val-Phe-Ile-Phe-Thr-Tyr-Gly-Glu-Leu-Gln-Arg-Leu-Gln-OH]
- IC50 [1]: 0.0162 µM
- pEC50 [2]: < 4.5
- block of the full contractile response to motilin (motilin receptor; compound at 10^-5 M): completely blocked
- shift of the dose-response curve of motilin (motilin receptor; compound at 10^-6 M): shifted by about one log unit
